{"source": "patent US4888336A", "about": "“Steroid 5-alpha-reductase inhibitors” (SmithKline Beckman Corporation, priority 1987, dated 1989)", "key": {"[1]": {"system": "5-alpha-reductase", "assay": "Time course of in vivo 5-alpha-reductase inhibition: T and DHT in rat ventral prostate (Table IV)", "set-up": "species or system rats", "details": "for DHT level / T level: ventral prostate, mean + SEM; for DHT level: ** P < .05; for T level: listed as name T not given"}, "[2]": {"system": "steroid 5-alpha-reductase", "assay": "In vivo inhibition of steroid 5-alpha-reductase: T and DHT levels in rat ventral prostate, 6 hours after oral dosing (Table III)", "set-up": "species or system Male Charles River CD rats", "details": "for DHT level / T level: ± SEM"}, "[3]": {"molecular_target": "T1, human steroid 5-alpha-reductase (Homo sapiens, UniProt P31213)", "T1 construct": "Prostatic particles were obtained by differential centrifugation; from tissue; host or cells: hyperplastic human prostate, washed 140,000×g particulate fraction", "T1 sequence (P31213 1-254)": "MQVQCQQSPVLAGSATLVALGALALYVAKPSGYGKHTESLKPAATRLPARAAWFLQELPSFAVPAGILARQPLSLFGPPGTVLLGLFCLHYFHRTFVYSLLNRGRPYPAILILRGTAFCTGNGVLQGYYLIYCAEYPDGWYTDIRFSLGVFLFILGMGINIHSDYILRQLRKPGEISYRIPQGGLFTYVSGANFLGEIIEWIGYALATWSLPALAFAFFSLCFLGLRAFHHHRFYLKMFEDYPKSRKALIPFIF", "assay": "Inhibition of human prostatic steroid 5-alpha-reductase ([14C]-testosterone conversion, Dixon plot)", "type": "biochemical", "protocol": "In determining potency in inhibiting the human enzyme, the following procedure was employed:\nThe tissue was homogenized in 3 to 5 volumes of 20 mM potassium phosphate, pH 6.5, buffer containing 0.33 M sucrose, 1 mM dithiothreitol, and 50 μM NADPH with a Brinkmann Polytron (Sybron Corporation, Westbury, N.Y.).\nThe resulting pellet was suspended in 20 mM potassium phosphate buffer, pH 6.5, containing 20% glycerol, 1 mM dithiothreitol, and 50 μM NADPH. The suspended particulate solution was stored at -80° C.\nAfter incubating the solution at 37° C. for 20 to 30 minutes the reaction was quenched by the addition of 4 ml ethyl acetate and 0.25 μmol each of testosterone, dihydrotestosterone, androstanediol, and androstanedione as carriers. The organic layer was removed to a second test tube and evaporated to dryness in a Speed Vac. […] The radiochemical content in the bands of the substrate and the products was determined with a BIOSCAN Imaging Scanner (Bioscan, Inc., Washington, D.C.). The percent of recovered radiolabel converted to product was calculated, from which enzyme activity was determined. All incubations were conducted such that no more than 12% of the substrate (testosterone) was consumed.\nThe experimentally obtained data was computer fitted to a linear function by plotting the reciprocal of the enzyme activity (1/velocity) against the variable inhibitor concentration (Dixon, M. (1953), Biochem. J., 55, 170). Assuming that the steroidal inhibitor is a competitive inhibitor against testosterone, a value for the inhibition constant (Ki) can be calculated from equation 1: […]"}, "[4]": {"system": "Steroid 5-alpha-reductase", "details": "cited from earlier work; for Reversibility of inhibition: Table 1; for Inhibition of steroid 5-alpha-reductase, in words: literature description"}, "[5]": {"details": "read-out: K1 (5-alpha-Reductase Inhibitors)"}, "[6]": {"details": "human hyperplastic prostate particulate, pH 5.0, 37° C., read-out: Ki"}}, "note": "Read-outs that look alike come from different tables or passages of the source."}
{"smiles": "CC(C)N(C(=O)[C@H]1CCC2=C3CC[C@H]4N(C)C(=O)CC[C@]4(C)[C@H]3CC[C@@]21C)C(C)C", "note": "[4-Methyl-4-aza-5-alpha-8(14)-androsten-3-one-17β-N,N-diisopropylcarboxamide]", "values": [{"measurement": "T/DHT", "setting": "[1]; 1 Hour", "value": 1.00}, {"measurement": "DHT level", "setting": "[1]; 1 Hour", "value": ".532 ± .08 ng/100 mg tissue"}, {"measurement": "T level", "setting": "[1]; 1 Hour", "value": ".533 ± .15 ng/100 mg tissue"}, {"measurement": "T/DHT", "setting": "[1]; 2 Hours", "value": ".97"}, {"measurement": "DHT level", "setting": "[1]; 2 Hours", "value": ".496 ± .05 ng/100 mg tissue"}, {"measurement": "T level", "setting": "[1]; 2 Hours", "value": ".481 ± .12 ng/100 mg tissue"}, {"measurement": "T/DHT", "setting": "[1]; 4 Hours", "value": 1.20}, {"measurement": "DHT level", "setting": "[1]; 4 Hours", "value": ".504 ± .09 ng/100 mg tissue"}, {"measurement": "T level", "setting": "[1]; 4 Hours", "value": ".607 ± .24 ng/100 mg tissue"}, {"measurement": "T/DHT", "setting": "[1]; 8 Hours", "value": 1.13}, {"measurement": "DHT level", "setting": "[1]; 8 Hours", "value": ".498 ± .04 ng/100 mg tissue"}, {"measurement": "T level", "setting": "[1]; 8 Hours", "value": ".565 ± .16 ng/100 mg tissue"}, {"measurement": "Difference in DHT levels compared to controls, in words", "setting": "[1]; at 1, 2, 4, and 8 hours, P < .05", "value": "significant differences in DHT levels"}]}
{"smiles": "C[C@@H](C(=O)O)[C@H]1CCC2=C3CC[C@H]4N(C)C(=O)CC[C@]4(C)[C@H]3CC[C@@]21C", "note": "[4-Methyl-4-aza-5-alpha-8(14)-pregnen-3-one-(20R)-20-carboxylic acid]", "values": [{"measurement": "T/DHT", "setting": "[2]; 5 mg/kg oral", "value": 0.79}, {"measurement": "DHT level", "setting": "[2]; 5 mg/kg oral", "value": "0.43 ± .12 ng/100 mg ventral prostate tissue"}, {"measurement": "T level", "setting": "[2]; 5 mg/kg oral", "value": "0.34 ± .11 ng/100 mg ventral prostate tissue"}, {"measurement": "T/DHT", "setting": "[2]; 10 mg/kg oral", "value": 0.76}, {"measurement": "DHT level", "setting": "[2]; 10 mg/kg oral", "value": "0.34 ± .09 ng/100 mg ventral prostate tissue"}, {"measurement": "T level", "setting": "[2]; 10 mg/kg oral", "value": "0.26 ± .07 ng/100 mg ventral prostate tissue"}, {"measurement": "T/DHT", "setting": "[2]; 20 mg/kg oral", "value": 0.88}, {"measurement": "DHT level", "setting": "[2]; 20 mg/kg oral", "value": "0.34 ± .06 ng/100 mg ventral prostate tissue"}, {"measurement": "T level", "setting": "[2]; 20 mg/kg oral", "value": "0.30 ± .04 ng/100 mg ventral prostate tissue"}]}
{"smiles": "C[C@@H](CO)[C@H]1CCC2=C3CC[C@H]4N(C)C(=O)CC[C@]4(C)[C@H]3CC[C@@]21C", "note": "[(1)]", "values": [{"measurement": "Ki", "setting": "[3]", "value": "450 ± 20", "unit": "nM"}]}
{"smiles": "C[C@]12CC[C@H]3[C@@H](CCC4=CC(=O)CC[C@@]43C)[C@@H]1CC[C@@H]2C(=O)O", "note": "[(1)]", "values": [{"measurement": "Reversibility of inhibition", "setting": "[4]", "value": "Reversible"}, {"measurement": "Ki", "setting": "[4]; [5]", "value": 1100, "unit": "nM"}]}
{"smiles": "CC(=O)C1CCC2C3CC=C=CC(=O)CCC(=O)C3CCC12C", "note": "(stereo not shown) [(2)]", "values": [{"measurement": "Reversibility of inhibition", "setting": "[4]", "value": "Irreversible"}, {"measurement": "Ki", "setting": "[4]; [5]", "value": 1000, "unit": "nM"}]}
{"smiles": "C[C@@H](C(=O)O)[C@H]1CCC2=C3CC[C@H]4N(C)C(=O)CC[C@]4(C)[C@H]3CC[C@@]21C", "note": "[(2)]", "values": [{"measurement": "Ki", "setting": "[3]; [6]", "value": "100 ± 10", "unit": "nM"}]}
{"smiles": "CC(C)N(C(=O)[C@H]1CCC2=C3CC[C@H]4N(C)C(=O)CC[C@]4(C)[C@H]3CC[C@@]21C)C(C)C", "note": "[(3)]", "values": [{"measurement": "Ki", "setting": "[3]; [6]", "value": "8 ± 2", "unit": "nM"}]}
{"smiles": "CC(CO)[C@H]1CC[C@H]2[C@@H]3CC[C@H]4C(=[N+]=[N-])C(=O)CC[C@]4(C)[C@H]3CC[C@]12C", "note": "(stereo partly shown) [(3)]", "values": [{"measurement": "Reversibility of inhibition", "setting": "[4]", "value": "Irreversible"}, {"measurement": "Ki", "setting": "[4]; line (3) printed without unit, read-out: K1 (5-alpha-Reductase Inhibitors), unit inferred", "value": 35, "unit": "nM"}, {"measurement": "Inhibition of steroid 5-alpha-reductase, in words", "setting": "[4]", "value": "potent, time-dependent inhibitor"}]}
{"smiles": "CCN(CC)C(=O)[C@H]1CC[C@H]2[C@@H]3CC[C@H]4N(C)C(=O)CC[C@]4(C)[C@H]3CC[C@]12C", "note": "[(4)]", "values": [{"measurement": "Reversibility of inhibition", "setting": "[4]", "value": "Reversible"}, {"measurement": "Ki", "setting": "[4]; [5]", "value": 5, "unit": "nM"}]}
{"smiles": "C=C1C[C@@H]2[C@H](CC[C@@]3(C)[C@H]2CC[C@]3(OC(C)=O)C(C)=O)[C@@]2(C)CCC(=O)C=C12", "note": "[(5)]", "values": [{"measurement": "Reversibility of inhibition", "setting": "[4]", "value": "Irreversible"}, {"measurement": "Inhibition of steroid 5-alpha-reductase, in words", "setting": "[4]", "value": "time-dependent inactivator"}, {"measurement": "Ki", "setting": "[4]; [5]", "value": 1250, "unit": "nM"}]}
{"smiles": "C[C@@H](CO)[C@H]1CCC2=C3CC[C@H]4N(C)C(=O)CC[C@]4(C)[C@H]3CC[C@@]21C", "note": "[(20R)-Hydroxymethyl-4-methyl-4-aza-5-alpha-8(14)-pregnen-3-one]", "values": [{"measurement": "T/DHT", "setting": "[2]; 5 mg/kg oral", "value": 0.72}, {"measurement": "DHT level", "setting": "[2]; 5 mg/kg oral", "value": "0.72 ± .21 ng/100 mg ventral prostate tissue"}, {"measurement": "T level", "setting": "[2]; 5 mg/kg oral", "value": "0.52 ± .27 ng/100 mg ventral prostate tissue"}, {"measurement": "T/DHT", "setting": "[2]; 10 mg/kg oral", "value": 0.83}, {"measurement": "DHT level", "setting": "[2]; 10 mg/kg oral", "value": "0.53 ± .12 ng/100 mg ventral prostate tissue"}, {"measurement": "T level", "setting": "[2]; 10 mg/kg oral", "value": "0.44 ± .13 ng/100 mg ventral prostate tissue"}, {"measurement": "T/DHT", "setting": "[2]; 20 mg/kg oral", "value": 0.92}, {"measurement": "DHT level", "setting": "[2]; 20 mg/kg oral", "value": "0.49 ± .14 ng/100 mg ventral prostate tissue"}, {"measurement": "T level", "setting": "[2]; 20 mg/kg oral", "value": "0.45 ± .12 ng/100 mg ventral prostate tissue"}]}
